Assay results: US9604933B2, “Pyrazolochalcones as potential anticancer agents” (COUNCIL OF SCIENTIFIC AND INDUSTRIAL RESEARCH, priority 2013, dated 2017)
Read-outs that look alike come from different tables or passages of the source.

Key:
[1] = system: RPMI-8226; experiment: NCI SRB cytotoxicity, leukemia RPMI-8226; format: cell-based; details: Homo sapiens, 48 h exposure
Experimental: (§1) The pyrazolochalcones (7e, 8e, 10e, 11e, 12e, 13e and 8f) have been tested against fifty nine human tumor cell lines derived from nine cancer types (leukemia, non-small cell lung cancer, colon cancer, CNS cancer, melanoma, ovarian cancer, renal cancer, prostate cancer and breast cancer) as per the NCI protocol. For each compound, dose response curves for individual cell lines have been measured at a minimum of five concentrations at 10 fold dilutions. A protocol of 48 h continuous drug exposure has been used, and a sulforhodamine B (SRB) protein assay has been used to estimate cell viability or growth. The concentration for 50% cell growth inhibition (GI50), 50% cell death (LC50, 50% growth) and total cell growth inhibition (TGI, 0% growth) values were tabulated (Table-1). DMSO was used as control to calculate the values of GI50, LC50 and TGI. The compounds 7e, 8e, 10e, 11e, 12e, 13e and 8f has been evaluated for their in vitro cytotoxicity in […] cell lines from nine human cancer types of leukemia (K-562, SR), non-small cell lung (Hop-62, NCI-H226, NCI-H522), colon (HCT-116, HCT-15, HCC-2998), CNS (SF-539), melanoma (SK-MEL-5, UACC-62, M14), ovarian (IGROV1), renal (A498), prostate (PC3) and breast (BT-549, MDA-MB-435, HS578T) origin. The results are expressed as percent of cell growth determined relative to that of untreated control cells (Table 2).

[2] = system: HCT-116; experiment: NCI SRB cytotoxicity, colon HCT-116; format: cell-based; details: Homo sapiens, 48 h exposure
Experimental: as §1

[3] = system: SF-268; experiment: NCI SRB cytotoxicity, CNS SF-268; format: cell-based; details: Homo sapiens, 48 h exposure
Experimental: as §1

[4] = system: HCC-2998; experiment: NCI SRB cytotoxicity, colon HCC-2998; format: cell-based; details: Homo sapiens, 48 h exposure
Experimental: as §1

[5] = system: A549/ATCC; experiment: NCI SRB cytotoxicity, non-small cell lung A549/ATCC; format: cell-based; details: Homo sapiens, 48 h exposure
Experimental: as §1

[6] = system: Ovarian; experiment: NCI SRB cytotoxicity, ovarian panel average; format: cell-based, human; details: average of cell lines
Experimental: as §1
(§2) Each cancer type represents the average of six to eight different cancer cell lines.

[7] = system: CNS; experiment: NCI SRB cytotoxicity, CNS panel average; format: cell-based, human; details: average of cell lines
Experimental: as §1, §2

[8] = system: SK-MEL-2; experiment: NCI SRB cytotoxicity, melanoma SK-MEL-2; format: cell-based; details: Homo sapiens, 48 h exposure
Experimental: as §1

[9] = system: MDA-MB-435; experiment: NCI SRB cytotoxicity, breast panel MDA-MB-435; format: cell-based; details: Homo sapiens, 48 h exposure
Experimental: as §1

[10] = system: Leukemia; experiment: NCI SRB cytotoxicity, leukemia panel average; format: cell-based, human; details: average of cell lines
Experimental: as §1, §2

[11] = system: SF-539; experiment: NCI SRB cytotoxicity, CNS SF-539; format: cell-based; details: Homo sapiens, 48 h exposure
Experimental: as §1

[12] = system: OVCAR-8; experiment: NCI SRB cytotoxicity, ovarian OVCAR-8; format: cell-based; details: Homo sapiens, 48 h exposure
Experimental: as §1

[13] = system: MDA-MB-435; experiment: NCI SRB cytotoxicity, melanoma MDA-MB-435; format: cell-based; details: Homo sapiens, Melanoma panel MDA-MB-435, 48 h exposure
Experimental: as §1

[14] = system: UACC-62; experiment: NCI SRB cytotoxicity, melanoma UACC-62; format: cell-based; details: Homo sapiens, 48 h exposure
Experimental: as §1

[15] = system: HCT-15; experiment: NCI SRB cytotoxicity, colon HCT-15; format: cell-based; details: Homo sapiens, 48 h exposure
Experimental: as §1

[16] = system: COLO-205; experiment: NCI SRB cytotoxicity, colon COLO-205; format: cell-based; details: Homo sapiens, 48 h exposure
Experimental: as §1

[17] = system: NCI/ADR-RES; experiment: NCI SRB cytotoxicity, ovarian NCI/ADR-RES; format: cell-based; details: Homo sapiens, 48 h exposure
Experimental: as §1

[18] = system: human tumor cell lines; experiment: NCI SRB cytotoxicity, all fifty nine human tumor cell lines; format: cell-based; set-up: Log10 TGI mean graph midpoint (MG_MID): unit not given here; details: for GI50: Homo sapiens
Experimental: as §1
The mean graph midpoint values of Log10 TGI and Log10 LC50 as well as Log10 GI50 for compounds 7e, 8e, 10e, 11e, 12e, 13e and 8f is listed in Table-3. […] The mean graph mid points of Log10 TGI and Log10, LC50 have shown similar pattern to the log10 GI50 mean graph mid points.

[19] = system: MDA-MB-231/ATCC; experiment: NCI SRB cytotoxicity, breast MDA-MB-231/ATCC; format: cell-based; details: Homo sapiens, 48 h exposure
Experimental: as §1

[20] = system: Colon; experiment: NCI SRB cytotoxicity, colon panel average; format: cell-based, human; details: average of cell lines
Experimental: as §1, §2

[21] = system: HT29; experiment: NCI SRB cytotoxicity, colon HT29; format: cell-based; details: Homo sapiens, HT-29, 48 h exposure
Experimental: as §1

[22] = system: HS 578T; experiment: NCI SRB cytotoxicity, breast HS 578T; format: cell-based; details: Homo sapiens, 48 h exposure
Experimental: as §1

[23] = system: HOP-62; experiment: NCI SRB cytotoxicity, non-small cell lung HOP-62; format: cell-based; details: Homo sapiens, 48 h exposure
Experimental: as §1

[24] = system: NCI-H522; experiment: NCI SRB cytotoxicity, non-small cell lung NCI-H522; format: cell-based; details: Homo sapiens, 48 h exposure
Experimental: as §1

[25] = system: ACHN; experiment: NCI SRB cytotoxicity, renal ACHN; format: cell-based; details: Homo sapiens, 48 h exposure
Experimental: as §1

[26] = system: TK-10; experiment: NCI SRB cytotoxicity, renal TK-10; format: cell-based; details: Homo sapiens, 48 h exposure
Experimental: as §1

[27] = system: OVCAR-3; experiment: NCI SRB cytotoxicity, ovarian OVCAR-3; format: cell-based; details: Homo sapiens, 48 h exposure
Experimental: as §1

[28] = system: MOLT-4; experiment: NCI SRB cytotoxicity, leukemia MOLT-4; format: cell-based; details: Homo sapiens, 48 h exposure
Experimental: as §1

[29] = system: PC-3; experiment: NCI SRB cytotoxicity, prostate PC-3; format: cell-based; details: Homo sapiens, 48 h exposure
Experimental: as §1

[30] = system: SW-620; experiment: NCI SRB cytotoxicity, colon SW-620; format: cell-based; details: Homo sapiens, 48 h exposure
Experimental: as §1

[31] = system: Prostate; experiment: NCI SRB cytotoxicity, prostate panel average; format: cell-based, human; details: average of cell lines
Experimental: as §1, §2

[32] = system: NCIH322M; experiment: NCI SRB cytotoxicity, non-small cell lung NCIH322M; format: cell-based; details: Homo sapiens, NCI-H322M, 48 h exposure
Experimental: as §1

[33] = system: Breast; experiment: NCI SRB cytotoxicity, breast panel average; format: cell-based, human; details: average of cell lines
Experimental: as §1, §2

[34] = system: CAKI-1; experiment: NCI SRB cytotoxicity, renal CAKI-1; format: cell-based; details: Homo sapiens, 48 h exposure
Experimental: as §1

[35] = Homo sapiens, read-out: Log10 LC50 (concentration in mol/L causing 50% cell death) (converted)

`COc1cc(-c2cc(/C=C/C(=O)c3ccc4c(c3)OCO4)[nH]n2)cc(OC)c1OC` [11e, (E)-1-(benzo[d][1,3]dioxol-5-yl)-3-(3-(3,4,5-trimethoxyphenyl)-1H-pyrazol-5-yl)prop-2-en-1-one] was tested, and the GI50 [1] was 510 nM, the GI50 [2] was 1850 nM and the GI50 [3] was 2970 nM. The GI50 [4] was 1950 nM, the GI50 [5] was 4.32 µM and the CC50 [6, 35] was 0.0001 mol/L. For the same molecule, the “Log10 GI50 (concentration in mol/L causing 50% growth inhibition)” value [6] was −4 mol/L, the “Log10 TGI (concentration in mol/L causing total growth inhibition (0% growth))” value [6] was −4.38 mol/L and the LC50 [7, 35] was 63.1 µM. The “Log10 GI50 (concentration in mol/L causing 50% growth inhibition)” value [7] was −4.2 mol/L, the “Log10 TGI (concentration in mol/L causing total growth inhibition (0% growth))” value [7] was −4.83 mol/L and the GI50 [8] was 10.3 µM. The GI50 [9] was 1400 nM, the CC50 [10, 35] was 0.0001 mol/L and the “Log10 GI50 (concentration in mol/L causing 50% growth inhibition)” value [10] was −4.91 mol/L. The “Log10 TGI (concentration in mol/L causing total growth inhibition (0% growth))” value [10] was −5.00 mol/L, the GI50 [11] was 2070 nM and the GI50 [12] was 2850 nM. For the same molecule, the GI50 [13] was 2390 nM, the GI50 [14] was 4.67 µM and the GI50 [15] was 2120 nM. For the same molecule, the GI50 [16] was 1870 nM, the GI50 [17] was 4.23 µM and the GI50 ([18]; across fifty nine cell lines in nine cell panels, read-out: GI50 value range) was 180 to 29200 nM. The GI50 ([18]; against human tumor cell lines, read-out: Log10 GI50 mean graph midpoint (MG_MID) (converted)) was 2690 nM, the cytotoxicity ([18]; against cancer cell lines, in words) was “significant cytotoxicity” and the “Log10 TGI mean graph midpoint (MG_MID)” value ([18]; against human tumor cell lines) was −4.77. It also gave an LC50 ([18]; against human tumor cell lines, read-out: Log10 LC50 mean graph midpoint (MG_MID) (converted)) of 61.7 µM, a GI50 [19] of 3.5 µM and an LC50 [20, 35] of 21.9 µM. For the same molecule, the “Log10 GI50 (concentration in mol/L causing 50% growth inhibition)” value [20] was −4.66 mol/L, the “Log10 TGI (concentration in mol/L causing total growth inhibition)” value [20] was −5.33 mol/L and the GI50 [21] was 2180 nM. It also gave a GI50 [22] of 3.71 µM, a GI50 [23] of 2180 nM and a GI50 [24] of 1030 nM. For the same molecule, the GI50 [25] was 1880 nM, the GI50 [26] was 2330 nM and the GI50 [27] was 3.38 µM. The GI50 [28] was 2980 nM, the GI50 [29] was 2810 nM and the GI50 [30] was 2470 nM. For the same molecule, the CC50 [31, 35] was 0.0001 mol/L, the “Log10 GI50 (concentration in mol/L causing 50% growth inhibition)” value [31] was −4 mol/L and the “Log10 TGI (concentration in mol/L causing total growth inhibition (0% growth))” value [31] was −4.94 mol/L. For the same molecule, the GI50 [32] was 3.01 µM, the CC50 [33, 35] was 0.000295 mol/L and the “Log10 GI50 (concentration in mol/L causing 50% growth inhibition)” value [33] was −3.53 mol/L. The “Log10 TGI (concentration in mol/L causing total growth inhibition (0% growth))” value [33] was −4.60 mol/L and the GI50 [34] was 5.51 µM.
